The values below come from patent publication US9403843B2, “Cysteine protease inhibitors and uses thereof” (The Trustees of Columbia University in the City of New York, priority 2012, dated 2016).

Series [1] deals with Aβ40 and Aβ42. Conditions: earlier observation; cited from earlier work.
The subject of series [2] is APP/PS1 mice. As to the kind of experiment: Behavioral rescue assays (contextual fear memory, 2-day RAWM reference memory). It is filed as in vivo. Conditions: 3 month old APP/PS1 mice. The source says: APP/PS1-vehicle: n=15; APP/PS1-67: n=6; APP/PS1-30a: n=10; WT-vehicle: n=15; WT-67=5; WT-30a: n=8, APP/PS1-33: n=11; WT-33: n=8, APP/PS1-50: n=10; WT-50: n=8. P<0.05 in all transgenic groups treated with compound compared to their respective vehicle-treated transgenics.
APP/PS1-vehicle: n=17; APP/PS1-67: n=9; APP/PS1-30a: n=10; WT-vehicle: n=18; WT-67=9; WT-30a: n=9, APP/PS1-33: n=10; WT-33: n=9, APP/PS1-50: n=11; WT-50: n=9.
The ability of compounds to rescue the defects in associative and reference memory in 3 month old APP/PS1 animals was assessed. Capability of ameliorating the defects in contextual fear memory was tested via i.p. administration (FIG. 12). In the 2-day RAWM test, daily injections of the 67, 30a, 33 and 50 from the 2nd month of age were beneficial against the loss of contextual fear memory and reference memory.
Impact of chronic treatment on against memory loss in older APP/PS1 mice (7 months of age) with a more severe plaque load was also investigated. Compounds 67, 33 and 50 were beneficial against memory impairment following chronic administration (FIG. 13).
(§1) The ability of a prodrug to rescue the defects in associative and reference memory in 3 month old APP/PS1 animals was assessed. […] Thus, the esterification seems to improve PK but it spoils PD parameters. Compound 89 ameliorates both LTP and memory in 3 month old APP/PS1 mice (FIG. 15). Daily treatment with 89 from the age of 2 months until 3 months ameliorated the defect in LTP (A) contextual fear memory (B) and reference memory (C) in APP/PS1 mice. n=10 for all groups. P<0.05 in transgenics treated with compound compared to their respective vehicle-treated transgenics.

Series [3] deals with APP/PS1 mice. As to the kind of experiment: LTP in APP/PS1 mice after daily treatment. The series is classed as in vivo. Conditions: daily treatment from 2 until 3 months. How it is done:
P<0.05 in transgenics treated with compound compared to their respective vehicle-treated transgenics.
as §1

The test system of series [4] is Aβ40 and Aβ42. As to the kind of experiment: Effect on Aβ levels in APP/PS1 mice. The series is classed as in vivo. Conditions: compound-treated vs vehicle-treated APP/PS1 transgenics. The source says: Increase of brain and plasma levels of Aβ and appearance of amyloid plaques is an important feature of AD.
Series [5] addresses Full length porcine calpain (Sus scrofa (Pig), UniProt P35750). As to the kind of experiment: Calpain inhibition kinetics studies (Suc-LLVY-AMC substrate). It is filed as biochemical. The note with it: for Ki: apparent equilibrium constant, read-out: K1 Calpain1; for Ki / ki Calpain1: full length Cal1; for ki Calpain1: inhibition rate; for rel Calpain1: ki/Ki calculated relative to E-64. The source says:
(§2) Papain is representative of a family of typically lysosomal or secreted cysteine proteases, including the human cathepsins (B, C, F, H, K, L1-2, O, S, W, Z). […] Several methods have been reported in the literature for detailed kinetic analysis of the irreversible inhibition of cysteine proteases, including Cal1. […] (SEQ ID NO: 8). Using this substrate, kinetic parameters were derived using the method of Davies and co-workers, whereby “progress curves” were initially obtained measuring product formation as a function of time and fitted to y=P∞*(1−e^(−k*x)) (FIG. 7) (Cuerrier, D. et al., J Biol Chem 2007, 282, 9600-11; herein incorporated by reference in its entirety). […] Kinetic parameters (ki, KI, ki/KI) were obtained from double reciprocal plots (FIG. 7).
(§3) Full length porcine calpain (156 nM), or papain (236 pM) was added to a solution of 100 mM NaCl, 50 mM HEPES, pH 7.6, 1 mM TCEP, 30 μM Suc-LLVY-AMC (SEQ ID NO: 8) substrate, and inhibitor (0.5 to 50 μM). Calpain reactions also contained CaCl2 (1 mM and 100 mM for porcine and rat respectively). Both substrate and inhibitors were dissolved in acetonitrile/DMSO (1:1) with the exception of E-64, dissolved in water. Organic solvent remained <2% in all reactions, and most often <1%. Reactions were carried out in microtiter 96-well plates, with 150 μL per well, 30° C., and product formation was monitored over time by fluorescence (Ex/Em 346/444 nm, with 420 nm cutoff filter). Kinetic values of kobs were determined via non-linear regression using one-phase association analysis and linear plots of 1/kobs vs. 1/[I] provided kinetic constants ki and KI.

The target of a further series is papain (Carica papaya (Papaya), UniProt P00784). The series is described as follows: biochemical. The series is classed as biochemical. Conditions: for ki Papain: inhibition rate; for rel Papain: ki/Ki calculated relative to E-64.
papain, sequence (P00784 134-345): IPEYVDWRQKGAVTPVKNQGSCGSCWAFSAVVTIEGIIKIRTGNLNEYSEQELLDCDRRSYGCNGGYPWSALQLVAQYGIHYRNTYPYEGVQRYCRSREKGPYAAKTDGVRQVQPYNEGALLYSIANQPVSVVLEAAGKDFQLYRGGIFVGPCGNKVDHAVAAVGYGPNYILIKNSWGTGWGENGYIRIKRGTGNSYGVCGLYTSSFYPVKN
Description: as §2, §3

The test system of the next series is Cal1cat vs CathB. The series is described as follows: Competition assay for Cal1 vs CathB using the biotinylated epoxide probe. The series is classed as binding, rat. The note with it: for blocking of active site modification by probe 27 (western blot signal): 10 min pre-treatment, then 20 min with 27. How it is done:
Anti-biotin western blotting of Cal1cat (Lane 6) or CathB (Lane 7) after incubation with 27 show the expected immunoreactivity of the covalently modified proteins. […] Densitometric analysis, using means from triplicate immunoblots, was used to estimate the modification of each protein by 27 in the presence of inhibitors relative to control (Lane 1: ratio=1.0).
Cal1cat was used in place of the full length enzyme to avoid autocatalysis.
Cal1cat and CathB were pre-treated with inhibitors for 10 min, followed by a 20 min incubation with the biotinylated epoxide, 27, as illustrated in FIG. 4. […] A more quantitative estimate of selectivity was achieved by comparison of band intensities.
The appropriate inhibitor (5 μM) was pre-incubated in a mixture containing Cal1cat (2 μM), CathB (2 μM), TCEP (1 mM), and Ca^2+ (30 μM) for 10 min at 37° C. […] (5 μM) was then added and the mixture incubated an additional 20 min. The reaction was quenched with EDTA (10 μM) and samples were ran using 4-16% SDS PAGE gel, subsequently transferred to PVDF membrane and visualized by Pierce ECL (Enhanced chemiluminescent) western blotting substrate, intensity of each blot was calculated using densitometry software. Relative inhibition of each enzyme was calculated with respect to enzyme activity in the absence of inhibitor. Inhibitor preference to Cal1cat with respect to CathB, was calculated by dividing relative Cal1cat inhibition with relative CathB inhibition of that particular inhibitor.
For orientation: A western blot detects proteins with antibodies after separation by electrophoresis.

A further series deals with Cal1cat (Rattus norvegicus (Rat), UniProt P97571). As to the kind of experiment: LC-MS/MS examination of inhibitor modified Cal1cat active site. Conditions: for modification of the active site cysteine of Cal1cat: Cal1cat 1 μM, varying inhibitor concentration. It is filed as binding. How it is done: (FIG. 3A) After capping of free cysteines with iodoacetamide (IAA) and in gel digest, peptide fragments were analyzed by LC-MS/MS. (FIG. 3B) Total ion chromatograms (TIC) for the incubation of recombinant Cal1cat (5 μM) in the absence or presence of inhibitors (10 μM). A non-active site and IAA-capped peptide fragment (Rt=41.3 min) was used as an internal standard for EIC quantitation. (FIG. 3C) Active site Cys modification of Cal1cat was concentration dependent in incubation containing Cal1cat (1 μM) and vary concentrations of inhibitors.
Cal1cat, sequence (P97571 other isoform, or with tags, fused parts or gaps): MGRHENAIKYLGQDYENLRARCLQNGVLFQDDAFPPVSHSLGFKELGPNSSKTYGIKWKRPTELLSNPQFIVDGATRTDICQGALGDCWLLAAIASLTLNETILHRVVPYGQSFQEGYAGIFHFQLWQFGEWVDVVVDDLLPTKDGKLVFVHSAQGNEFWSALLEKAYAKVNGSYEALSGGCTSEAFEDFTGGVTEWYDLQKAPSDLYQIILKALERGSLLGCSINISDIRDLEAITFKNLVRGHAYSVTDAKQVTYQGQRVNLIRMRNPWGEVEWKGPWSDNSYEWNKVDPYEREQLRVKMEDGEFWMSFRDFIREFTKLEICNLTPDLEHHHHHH
Inhibition kinetics and x-ray crystallography support a mechanism of calpain inhibition by E-64, resulting from covalent modification of the active site Cys (Suzuki, K. et al., FEBS Letters 1983, 152, 67-70; herein incorporated by reference in its entirety). LC-MS/MS was used to support a similar mechanism for 24a. The experimental methodology is outlined in FIG. 3A. Cal1cat (5 μM) was incubated with the appropriate inhibitor (10 μM) for 30 min. The mixture was quenched with EDTA (10 μM), and run on a SDS PAGE gel. Band excision, in-gel capping office cysteines with iodoacetamide (IAA, […]), tryptic digest, and subsequent LC-MS/MS analysis afforded the chromatograms shown in FIG. 3B. […] A peptide fragment containing an IAA labeled non-active site cysteine was used as an internal standard for semi-quantitative EIC analysis of the degree of active site modification observed (FIG. 3B). It is noteworthy that although Cal1cat was employed in these studies, analysis of full length Cal1 gave an identical active site peptide fragment (TIC of control digest from Cal1cat and full length Cal1 are compared in Example 10).
The reaction was quenched with EDTA (10 μM) and reaction mixture ran on a SDS PAGE gel. The Cal1cat containing band was cut from the gel and submitted to in-gel alkylation with IAA (100 mM) for 60 min, followed by trypsin digestion. LC-MS/MS was carried out on an Agilent 6300 Ion-Trap LC/MS. […] The resulting TIC and EIC were analyzed for anticipated m/z modified peptide fragments.

The target in series [6] is T1, full-length human Cal1 (Homo sapiens (Human), UniProt P07384). The series is described as follows: Calpain inhibition FRET assay. The series is classed as biochemical. Conditions: Table 2; approximate IC50; read-out: Cal I IC50.
T1 sequence (P07384 whole entry): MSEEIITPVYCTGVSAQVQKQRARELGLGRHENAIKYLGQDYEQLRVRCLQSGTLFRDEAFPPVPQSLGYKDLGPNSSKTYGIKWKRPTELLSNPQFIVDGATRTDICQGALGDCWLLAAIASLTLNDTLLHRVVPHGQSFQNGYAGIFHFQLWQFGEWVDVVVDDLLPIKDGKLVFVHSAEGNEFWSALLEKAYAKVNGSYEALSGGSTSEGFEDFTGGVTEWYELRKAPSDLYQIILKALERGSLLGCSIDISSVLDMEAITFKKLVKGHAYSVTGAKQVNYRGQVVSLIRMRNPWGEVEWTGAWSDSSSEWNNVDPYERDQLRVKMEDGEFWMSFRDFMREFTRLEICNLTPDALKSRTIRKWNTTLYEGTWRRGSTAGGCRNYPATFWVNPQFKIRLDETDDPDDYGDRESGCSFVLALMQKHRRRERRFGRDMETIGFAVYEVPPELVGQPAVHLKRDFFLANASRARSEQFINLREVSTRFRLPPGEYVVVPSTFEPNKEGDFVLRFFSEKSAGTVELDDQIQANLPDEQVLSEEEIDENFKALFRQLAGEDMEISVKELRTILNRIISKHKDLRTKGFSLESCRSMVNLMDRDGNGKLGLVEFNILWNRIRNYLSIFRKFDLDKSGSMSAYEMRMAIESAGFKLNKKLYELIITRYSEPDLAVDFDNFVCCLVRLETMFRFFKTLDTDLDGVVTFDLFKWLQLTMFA
T1 sequence (P04632 whole entry partner): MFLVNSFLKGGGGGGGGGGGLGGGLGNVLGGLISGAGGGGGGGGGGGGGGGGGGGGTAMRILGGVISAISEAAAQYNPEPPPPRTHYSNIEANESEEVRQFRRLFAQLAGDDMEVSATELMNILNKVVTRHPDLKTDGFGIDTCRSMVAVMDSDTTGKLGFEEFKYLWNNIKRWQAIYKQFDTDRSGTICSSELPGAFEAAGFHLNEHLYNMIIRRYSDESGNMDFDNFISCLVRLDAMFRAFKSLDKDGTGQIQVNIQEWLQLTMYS
The test system of the next series is Cal I. The series is described as follows: Relative selectivity for Cal I (E64 = 1.0), Table 2. It is filed as biochemical. The note with it: relative to E64 = 1.0.
For a further series, the system named is primary neurons. As to the kind of experiment: LD50 in primary neurons. The series is classed as cell-based. The note with it: YES = LD50 ≧ 50 μM in primary neurons.
Series [7] has as its target T1, full-length human Cal1. The series is described as follows: Calpain inhibition FRET assay. It is filed as biochemical. The note with it: Table 3, 20 min incubation, FRET substrate.
Series [8] has as its system Aβ-induced LTP impairment. As to the kind of experiment: LTP rescue test. The note with it: LTP rescue, benchmark.
Description: Residual levels of potentiation were averaged during the last 5 min of LTP.
The mark [9] stands for this setting: mean ± S.D. of triplicate experiments.

Read-outs that look alike come from different tables or passages of the source.

Full length porcine calpain, sequence (P35750 whole entry): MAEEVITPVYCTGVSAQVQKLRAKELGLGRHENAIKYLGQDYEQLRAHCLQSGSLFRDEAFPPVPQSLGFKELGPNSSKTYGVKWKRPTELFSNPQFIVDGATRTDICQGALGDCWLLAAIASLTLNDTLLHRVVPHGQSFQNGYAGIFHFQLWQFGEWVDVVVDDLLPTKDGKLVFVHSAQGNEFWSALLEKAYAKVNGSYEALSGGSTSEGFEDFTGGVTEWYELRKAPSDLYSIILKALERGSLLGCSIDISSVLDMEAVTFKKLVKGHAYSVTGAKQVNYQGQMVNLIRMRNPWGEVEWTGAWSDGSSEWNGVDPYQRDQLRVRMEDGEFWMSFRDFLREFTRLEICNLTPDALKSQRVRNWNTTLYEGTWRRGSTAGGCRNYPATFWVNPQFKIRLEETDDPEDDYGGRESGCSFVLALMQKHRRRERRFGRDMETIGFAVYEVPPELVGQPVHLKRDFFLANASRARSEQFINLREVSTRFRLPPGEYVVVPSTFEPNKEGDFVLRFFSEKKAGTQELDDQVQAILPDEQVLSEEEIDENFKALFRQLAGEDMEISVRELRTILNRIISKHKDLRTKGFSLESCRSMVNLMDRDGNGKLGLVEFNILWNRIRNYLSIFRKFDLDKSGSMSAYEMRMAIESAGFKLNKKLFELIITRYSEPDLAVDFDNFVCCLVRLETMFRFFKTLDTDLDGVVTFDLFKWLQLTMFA
Full length porcine calpain, sequence (P04574 whole entry partner): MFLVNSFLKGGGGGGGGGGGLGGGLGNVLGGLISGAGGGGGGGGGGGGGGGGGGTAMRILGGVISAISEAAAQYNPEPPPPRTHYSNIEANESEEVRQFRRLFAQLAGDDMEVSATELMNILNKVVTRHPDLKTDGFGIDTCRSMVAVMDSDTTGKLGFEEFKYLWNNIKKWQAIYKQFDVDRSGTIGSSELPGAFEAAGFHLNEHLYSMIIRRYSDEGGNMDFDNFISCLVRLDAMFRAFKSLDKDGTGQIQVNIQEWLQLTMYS

Consider `CC(C)C[C@H](NS(=O)(=O)c1ccccc1)C(=O)N[C@@H](C(C)C)[C@@H](O)c1c(-c2ccccc2)c1=O` [BDA-410], for which the “Aβ levels and plaque load” value in the series with Aβ40 and Aβ42 [1] was “do not have any effect”.
For the molecule `CCOC(=O)[C@@H]1O[C@H]1C(=O)N[C@@H](Cc1cscn1)C(=O)Nc1nc(-c2ccc(F)cc2)cs1` [Compound 89], in the series with APP/PS1 mice [2] (2-day RAWM, daily from 2 months), the reference memory entry is on record as “ameliorated”. Besides, in the series on APP/PS1 mice [2] (daily i.p. from 2 months), the contextual fear memory result is “ameliorated”. Besides, in the series with APP/PS1 mice [3], the “defect in LTP” value is “ameliorated”. Moreover, the “Aβ40 and Aβ42 levels in hippocampi” value in the series on Aβ40 and Aβ42 [4] is listed as “no difference was detected”.
In the case of `CC(C)C[C@H](NC(=O)[C@H]1O[C@@H]1C(=O)O)C(=O)Nc1nc(-c2ccc(F)cc2)cs1` [Compound 24a, (2S,3S)-3-((S)-1-(4-(4-fluorophenyl)thiazol-2-ylamino)-4-methyl-1-oxopentan-2-ylcarbamoyl)oxirane-2-carboxylic acid], in series [5], the Ki came out at 6000 nM, the “ki Calpain1” value amounted to 0.16 s⁻¹ and the “rel Calpain1” value is reported as 0.91. Besides, the Ki at papain (apparent equilibrium constant, read-out: K1 Papain) came to 1600 nM. Also, at papain, the “ki Papain” value came to 17.1 s⁻¹ and the “rel Papain” value is given as 1.9. In addition, the “blocking of active site modification by probe 27 (western blot signal)” value in the series on Cal1cat vs CathB is recorded as “substantially reduced signals from both enzymes”. For the same molecule, the “modification of the active site cysteine of Cal1cat” value at Cal1cat was “concentration dependent modification”. On Cal1cat (Cal1cat with E-64 and 24a, both 1 μM), the “active site modification on co-incubation of E-64 and 24a (EIC peak areas)” value is “greater modification”.
Regarding `CC(C)C[C@H](NC(=O)C1O[C@@H]1C(=O)O)C(=O)NCCCCNC(=N)N` (stereo partly drawn) [Compound E64, L-trans-epoxysuccinyl-leucylamido(4-guanidino)butane, reference compound], the 50% inhibitory concentration (IC50) (as a rule, the concentration at which inhibition is half-maximal) at full-length human Cal1 [6] was 100 nM. In the series on Cal I, the “Relative selectivity for Cal I E64 = 1.0” value was 1.0. Also, in the series with primary neurons, the “LD50 ≧ 50 μM primary neurons” value is “YES”. For the same molecule, the “Relative Selectivity” value in series [5] (Cal1 over papain, ki/Ki relative to E-64 set at 1.0) was 1. In series [5], the Ki worked out at 4000 nM, the “ki Calpain1” value was 0.12 s⁻¹ and the “rel Calpain1” value is given as 1. In [5] (setting [9]), the “10^−4 × ki/Ki Calpain1” value worked out at 3.02 ± 0.15. For the same molecule, at papain, the Ki worked out at 5100 nM, the “ki Papain” value turned out to be 28.6 s⁻¹ and the “rel Papain” value is 1. Moreover, at papain (setting [9]), the “10^−5 × ki/Ki Papain” value is given as 56.3 ± 5.2. For the same molecule, the “blocking of active site modification by probe 27 (western blot signal)” value in the series with Cal1cat vs CathB was “substantial loss of signal”. In addition, the “selectivity for Cal1cat (ratio of Cal1cat versus CathB band intensities)” value in the series on Cal1cat vs CathB (ratio for probe 27 alone set as 1.0, inhibitor 5 μM) was 1.5. In addition, the “modification of the active site cysteine of Cal1cat” value on Cal1cat is on record as “concentration dependent modification”. The molecule also had a half-maximal inhibitory concentration (IC50) on full-length human Cal1 [7] of 100 nM. Besides, the “Aβ levels and plaque load” value in the series on Aβ40 and Aβ42 [1] was “do not have any effect”. The ED50 in [8] came out at 650 nM.
